Results from patent publication US11773057B2, “Naphthalenesulfonamide compound, preparation method, and application” (CHINA PHARMACEUTICAL UNIVERSITY, priority 2019, dated 2023).

Molecular target: T1, Keap1-Nrf2 PPI (Keap1 kelch domain protein, FITC labeled Nrf2 9 peptide) (Homo sapiens, UniProt Q14145)
T1 construct: 10 μL 12 nm Keap1 kelch domain protein
Test: Fluorescence polarization based Keap1-Nrf2 PPI competitive inhibition experiment (FP experiment)
Type: binding
Details: FP experiment
Description: 1. Keap1-Nrf2 PPI Competitive Inhibition Test Based on Fluorescence Polarization (FP Experiment)
The 384-well blackboard model 3676 produced by Corning is used in FP experiment, with a total volume of reaction of 40 μL. 20 μL compound, 10 μL 4 nm FITC labeled Nrf2 9 peptide, 10 μL 12 nm Keap1 kelch domain protein are added to the well in order. 20 μL 200 nM DDO-1002, 10 μL 4 nM of the FITC-labeled Nrf2 9 peptide, 10 μL 12 nM of Keap1 Ketch domain protein are used in the positive control; 20 μL HEPES buffer, 10 μL 4 nM of the FITC-labeled Nrf2 9 peptide, 10 μL, 12 nM of Keap1 Kelch domain protein are used in the negative control; 10 μL 4 nM of the FITC-labeled Nrf2 9 peptide, 30 μL of HEPES buffer are used in the blank control. After addition is complete, they are incubated for 30 min at room temperature. The detection instrument is a SpectraMax Multi-Mode Microplate Reader (Molecular Devices), the excitation light wavelength selected is 485 nm, the emission light wavelength is 545 nm, and the fluorescence intensity in the horizontal and vertical directions is detected to calculate the polarization value. The inhibition rate is calculated as: inhibition %=[…]/(Pmax−Pmin) wherein Pobs is the polarization value of the compound well, Pmax is the polarization value of the negative control well, and Pmin is the polarization value of the blank well. Data treatment is performed using GraphPad Prism, and IC50 of the compound is calculated using a concentration-inhibition rate curve. The IC50 values for each compound are as previously described.

[1] = general formula III compounds, unit inferred
[2] = general formula I / II compounds
[3] = general formula V / VI compounds

T1 sequence (Q14145 321-609 limits assumed): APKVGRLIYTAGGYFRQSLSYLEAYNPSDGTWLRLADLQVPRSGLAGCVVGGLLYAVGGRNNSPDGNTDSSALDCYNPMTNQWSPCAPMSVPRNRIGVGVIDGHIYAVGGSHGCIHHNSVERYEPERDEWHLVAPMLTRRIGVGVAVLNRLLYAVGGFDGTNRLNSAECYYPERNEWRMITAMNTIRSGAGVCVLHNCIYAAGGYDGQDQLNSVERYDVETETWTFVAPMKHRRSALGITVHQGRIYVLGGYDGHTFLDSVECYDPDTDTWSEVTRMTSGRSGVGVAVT

Question: For `C#CCN(c1ccc(N(CC(=O)O)S(=O)(=O)c2ccc(NC(C)=O)cc2)c2ccccc12)[C@@H](C)CC(=O)O` [DDO-1189, (S)-3-((4-((4-acetamido-N-(carboxymethyl)phenyl)sulfonamido)naphthalen-1-yl)(prop-2-yn-1-yl)amino) butanoic acid], which IC50 (general formula IV compounds) is on record?
Answer: The IC50 was 630 nM.

Question: `C#CCN(c1ccc(NS(=O)(=O)c2ccc(NC(C)=O)cc2)c2ccccc12)[C@@H](C)CC(=O)O` [DDO-1188, (S)-3-((4-((4-acetamidophenyl)sulfonamido)naphthalen-1-yl) (prop-2-yn-1-yl)amino) butanoic acid] was tested. Which IC50 [1] did it give?
Answer: The IC50 was 1460 nM.

Question: For `C#CCN(c1ccc(N(CC(=O)O)S(=O)(=O)c2ccc(OC)cc2)c2ccccc12)[C@@H](C)CC(=O)O` [DDO-1181], which IC50 (general formula IV compounds) is on record?
Answer: The IC50 was 68 nM.

Question: `C#CCN(c1ccc(NS(=O)(=O)c2ccc(C)cc2C)c2ccccc12)[C@@H](C)CC(=O)O` [DDO-1204, (S)-3-((4-((2,4-dimethylphenyl)sulfonamido)naphthalen-1-yl) (prop-2-yn-1-yl)amino) butanoic acid] was tested. Which IC50 [1] did it give?
Answer: Its IC50 is 93 nM.

Question: How did the IC50 [2] turn out when `COc1ccc(S(=O)(=O)N(CC(=O)O)c2ccc(N(Cc3ccccc3F)[C@@H](C)CC(=O)O)c3ccccc23)cc1` [DDO-1179] was run?
Answer: The IC50 was 75 nM.

Question: `C#CCN(c1ccc(NS(=O)(=O)c2ccc(OC)c(OC)c2)c2ccccc12)[C@@H](C)CC(=O)O` [DDO-1210, (S)-3-((4-((3,4-dimethoxyphenyl)sulfonamido)naphthalen-1-yl) (prop-2-yn-1-yl)amino) butanoic acid] was tested. Which IC50 [3] did it give?
Answer: The IC50 was 72 nM.

Question: Which IC50 [2] does the source give for `COc1ccc(S(=O)(=O)Nc2ccc(N(Cc3ccccc3Cl)[C@@H](C)CC(=O)O)c3ccccc23)cc1` [DDO-1174, (S)-3-((2-chlorobenzyl) (4-((4-methoxyphenyl)sulfonamido)naphthalen-1-yl)amino) butanoic acid] here?
Answer: The IC50 was 1600 nM.

Question: `C#CCN(c1ccc(NS(=O)(=O)c2ccc(C(C)C)cc2)c2ccccc12)[C@@H](C)CC(=O)O` [DDO-1196, (S)-3-((4-((4-isopropylphenyl)sulfonamido)naphthalen-1-yl)(prop-2-yn-1-yl)amino) butanoic acid] was tested. Which IC50 [1] did it give?
Answer: Its IC50 is 220 nM.

Question: `C#CCN(c1ccc(NS(=O)(=O)c2ccc(C)cc2)c2ccccc12)[C@@H](C)CC(=O)O` [DDO-1194, (S)-3-((4-((4-methylphenyl)sulfonamido)naphthalen-1-yl)(prop-2-yn-1-yl)amino) butanoic acid] was tested. Which IC50 [1] did it give?
Answer: The IC50 was 480 nM.

Question: Which IC50 [2] does the source give for `COc1ccc(S(=O)(=O)Nc2ccc(N(Cc3cccc(C)c3)[C@@H](C)CC(=O)O)c3ccccc23)cc1` [DDO-1168, (S)-3-((4-((4-methoxyphenyl)sulfonamido)naphthalen-1-yl) (3-methylbenzyl)amino) butanoic acid] here?
Answer: The IC50 was 1660 nM.

Question: For `C#CCN(c1ccc(NS(=O)(=O)c2ccccc2OC)c2ccccc12)[C@@H](C)CC(=O)O` [DDO-1198], which IC50 [1] is on record?
Answer: The IC50 was 2000 nM.

Question: How did the IC50 [2] turn out when `COc1ccc(S(=O)(=O)N(CC(=O)O)c2ccc(N(Cc3cccc(C)c3)[C@@H](C)CC(=O)O)c3ccccc23)cc1` [DDO-1169] was run?
Answer: The IC50 was 205 nM.

Question: With `C#CCN(c1ccc(N(CC(=O)O)S(=O)(=O)c2ccc(OC)c(F)c2)c2ccccc12)[C@@H](C)CC(=O)O` [DDO-1213] as the compound, how does the IC50 [3] read?
Answer: Its IC50 is 155 nM.

Question: For `C#CCN(c1ccc(NS(=O)(=O)c2c(C)cc(OC)c(C)c2C)c2ccccc12)[C@@H](C)CC(=O)O` [DDO-1218, (S)-3-((4-((4-methoxy-2,3,6-trimethylphenyl)sulfonamido)naphthalen-1-yl) (prop-2-yn-1-yl)amino) butanoic acid], which IC50 [3] is on record?
Answer: Its IC50 is 23 nM.

Question: `C#CCN(c1ccc(NS(=O)(=O)c2ccccc2C)c2ccccc12)[C@@H](C)CC(=O)O` [DDO-1202, (S)-3-((4-((2-methylphenyl)sulfonamido)naphthalen-1-yl)(prop-2-yn-1-yl)amino) butanoic acid] was tested. Which IC50 [1] did it give?
Answer: The IC50 was 240 nM.

Question: For `C#CCN(c1ccc(N(CC(=O)O)S(=O)(=O)c2c(C)c(C)cc(C)c2C)c2ccccc12)[C@@H](C)CC(=O)O` [DDO-1209, (S)-3-((4-((N-(Carboxymethyl)-2,3,5,6-tetramethylphenyl)sulfonamido)naphthalen-1-yl)(prop-2-yn-1-yl)amino) butanoic acid], which IC50 (general formula IV compounds) is on record?
Answer: The IC50 was 150 nM.
